PubChem BioAssay AID488770 (The Scripps Research Institute Molecular Screening Center, 2010)
The source made the active and inactive calls.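 How the source made its calls: active means IC50 at or below 10 µM; inactive means IC50 above 10 µM.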

biological target: KH domain-containing RNA-binding protein QKI (Mus musculus) (UniProt Q9QYS9); assay: inhibitors of QKI-RNA binding, dose response, gld-1 inhibitor project, biochemical, fluorescence polarization, mouse QKI, powder samples (AID 488770); details: 1536-well
Sequence (Q9QYS9 whole entry, looked up, the tested form may be a part): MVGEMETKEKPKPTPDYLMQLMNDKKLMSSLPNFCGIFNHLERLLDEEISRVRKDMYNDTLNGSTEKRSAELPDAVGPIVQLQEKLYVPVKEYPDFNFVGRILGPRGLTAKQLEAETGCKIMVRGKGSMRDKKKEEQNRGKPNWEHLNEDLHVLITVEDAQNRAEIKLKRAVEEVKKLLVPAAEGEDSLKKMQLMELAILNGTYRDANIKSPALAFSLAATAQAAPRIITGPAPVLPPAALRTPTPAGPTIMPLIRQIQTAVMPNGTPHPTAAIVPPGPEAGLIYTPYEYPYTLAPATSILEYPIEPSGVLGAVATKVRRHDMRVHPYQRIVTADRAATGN

SMILES | IC50
COc1ccc(/C=C(\CC(=O)O)c2nc3ccccc3s2)cc1O | 0.155 µM
CCCCn1c(=O)[nH]c2nc3cc(NC(C)=O)ccc3nc2c1=O | 1.59 µM
O=c1[nH]c2cc3ccccc3cc2nc1C(F)(F)F | 1.17 µM
Cc1ccc(S(=O)(=O)Nc2cc3c(C(=O)Nc4ccccc4)c(C)oc3c3ccccc23)cc1 | 0.262 µM
CCOC(=O)c1c(C)oc2c1cc(NS(=O)(=O)c1ccc(C)cc1)c1ccccc12 | > 59.6 µM (inactive)
Nc1c(O)ccc2c1C(=O)c1ccccc1C2=O | 2.53 µM
CCN(CC)S(=O)(=O)c1ccc(N2CCCC2)c(NS(=O)(=O)c2ccc(F)cc2)c1 | 1.62 µM
O=C(CN1C(=O)NC2(CCCCC2)C1=O)Oc1ccc2c(C(F)(F)F)cc(=O)oc2c1 | 2.13 µM
CC1=CC(=O)c2c(O)ccc(O)c2C1=O | 5.62 µM
O=c1[nH]c(=O)c2nc3ccccc3nc2[nH]1 | inactive
O=C1C2=C(SCCS2)C(=O)N1CCCO | 2.24 µM
Cc1ccc(S(=O)(=O)Nc2cc3c(C(=O)Nc4ccccc4)c(C)oc3c3ccccc23)c(C)c1 | 0.419 µM
COc1ccc(C=Nc2c(-c3ccco3)nc3ccccn23)cc1OC | inactive
Nc1ccc2nonc2c1[N+](=O)[O-] | > 59.6 µM (inactive)
Nc1ccc(O)c2c1C(=O)c1ccccc1C2=O | 2.28 µM
